# Source: article PMC10698194 (Nature Communications, 2023)
# “And” between values parts separate entries of the source, which are not always exact repeats. Equal values may be shown once. Read-outs that look alike come from different tables or passages of the source.
# How the values were obtained:
# human MOR = target: T1, human MOR (Homo sapiens, UniProt P35372); test: [35S]GTPγS binding assay, CHO membranes; assay type: biochemical
# T1 construct: expressed in transfected cells
# mouse KOR [1] = target: T2, mouse KOR (Mus musculus, UniProt P33534); test: cell-based; design: expressed in transfected cells
# Target sequence in this assay (P33534 whole entry): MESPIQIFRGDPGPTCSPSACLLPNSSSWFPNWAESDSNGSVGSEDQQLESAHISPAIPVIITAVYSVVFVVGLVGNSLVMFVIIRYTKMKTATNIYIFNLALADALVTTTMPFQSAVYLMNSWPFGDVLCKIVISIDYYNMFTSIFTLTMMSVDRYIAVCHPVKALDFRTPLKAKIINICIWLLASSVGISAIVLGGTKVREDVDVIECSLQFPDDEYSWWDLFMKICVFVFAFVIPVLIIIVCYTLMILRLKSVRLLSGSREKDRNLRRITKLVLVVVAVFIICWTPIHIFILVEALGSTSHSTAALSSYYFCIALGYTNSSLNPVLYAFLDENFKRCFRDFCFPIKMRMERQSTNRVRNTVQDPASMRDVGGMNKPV
# human KOR = human KOR (Homo sapiens, UniProt P41145); test: [35S]GTPγS binding assay, CHO membranes; assay type: biochemical; design: expressed in transfected cells; conditions: for stimulation of [35S]GTPγS binding, normalized: replicates
# Chain of human KOR (P41145 whole entry): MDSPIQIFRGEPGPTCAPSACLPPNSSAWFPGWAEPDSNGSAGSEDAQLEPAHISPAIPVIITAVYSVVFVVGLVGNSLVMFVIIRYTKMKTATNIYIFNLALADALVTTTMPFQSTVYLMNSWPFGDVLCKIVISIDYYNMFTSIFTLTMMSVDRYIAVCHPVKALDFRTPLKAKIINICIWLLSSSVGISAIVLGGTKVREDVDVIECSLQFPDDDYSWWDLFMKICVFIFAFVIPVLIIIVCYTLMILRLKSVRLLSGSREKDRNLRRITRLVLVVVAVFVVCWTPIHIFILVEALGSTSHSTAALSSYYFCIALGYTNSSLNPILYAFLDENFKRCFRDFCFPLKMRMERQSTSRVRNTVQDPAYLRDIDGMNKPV
# human DOR = target: T3, human DOR (Homo sapiens, UniProt P41143); test: [35S]GTPγS binding assay, CHO membranes; assay type: biochemical
# T3 construct: expressed in transfected cells
# T3 sequence (P41143 whole entry): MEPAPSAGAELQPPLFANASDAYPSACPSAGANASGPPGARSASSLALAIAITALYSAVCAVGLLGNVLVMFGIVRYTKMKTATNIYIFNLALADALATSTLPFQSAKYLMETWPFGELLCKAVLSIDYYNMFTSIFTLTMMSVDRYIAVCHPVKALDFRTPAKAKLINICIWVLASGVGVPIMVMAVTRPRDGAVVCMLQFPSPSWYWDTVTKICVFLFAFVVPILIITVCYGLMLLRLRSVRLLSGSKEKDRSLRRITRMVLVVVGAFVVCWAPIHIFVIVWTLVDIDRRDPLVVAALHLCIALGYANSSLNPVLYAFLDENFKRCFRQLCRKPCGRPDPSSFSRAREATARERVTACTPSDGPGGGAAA
# mouse KOR [2] = target: T2, mouse KOR; test: cell-based; design: expressed in transfected cells; host or cells: HEK293T, transient; conditions: for β-arrestin-2 recruitment, normalized: replicates
# Target sequence in this assay (P33534 whole entry): as the sequence (P33534 whole entry) above
# Target sequence in this assay (P32121 whole entry partner): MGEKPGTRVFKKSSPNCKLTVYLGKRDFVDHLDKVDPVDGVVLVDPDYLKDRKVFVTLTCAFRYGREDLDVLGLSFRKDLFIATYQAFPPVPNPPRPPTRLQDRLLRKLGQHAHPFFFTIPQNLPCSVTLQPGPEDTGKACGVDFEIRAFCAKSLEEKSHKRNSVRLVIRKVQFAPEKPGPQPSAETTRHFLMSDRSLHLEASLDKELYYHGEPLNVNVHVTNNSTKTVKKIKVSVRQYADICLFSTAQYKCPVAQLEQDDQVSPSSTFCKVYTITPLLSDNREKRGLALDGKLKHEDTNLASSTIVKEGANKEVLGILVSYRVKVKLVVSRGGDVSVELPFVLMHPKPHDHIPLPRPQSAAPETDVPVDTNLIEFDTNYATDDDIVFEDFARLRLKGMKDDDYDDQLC
# mouse KOR [3] = target: T2, mouse KOR; test: biochemical; assay type: binding; design: expressed in transfected cells; conditions: for specific [3H]DPN binding, normalized to 100%: replicates
# Target sequence in this assay (P33534 whole entry): as the sequence (P33534 whole entry) above
# [4] = human
# Method: (§1) Blood was drawn from healthy volunteers devoid of any medication for 14 days from the antecubital vein using 21 G needles and collected in a serum clot activator tube (4 mL tubes, Greiner bio-one). […] Volunteers gave written informed consent before blood donation. […] Blood samples were collected into Vacuette® clot activator tubes (Greiner Bio-One, Austria). After clotting of about 2 h, the samples were centrifuged at 2200 × g for 15 min at 22 °C. The serum was removed and centrifuged again to remove lipids and cell particles at 16,000 × g at 4 °C for 20 min. […] The samples were incubated at 37 °C under continuous shaking at 300 rotations-per-minute. […] The samples were mixed well and incubated on ice for 10 min. For the protein precipitation, 30 µL of a 20% (w/v) trichloroacetic acid was added and incubated on ice for 15 min. The clear supernatant was harvested by centrifugation at 16,000 × g at 4 °C for 20 min and this sample was used for HPLC analysis. The chromatography HPLC system was a ThermoFisher Ultimate 3000 equipped with a pump, autosampler and single wavelength detector. […] The remaining peptide was calculated relative to the AUC at time point zero. The data points were fitted to a one-phase decay function and to determine the resulting half-life of the peptide in serum.
# (§2) 0.1% trifluoroacetic acid in water and acetonitrile/water trifluoroacetic acid 90/10/0.1% (v/v/v) with a
# linear separation gradient over 30 min.
# human KOR WT [5] = target: T4, human KOR WT (Homo sapiens, UniProt P41145); test: cAMP inhibition assay normalized to salvinorin A; assay type: cell-based
# T4 construct: FLAG; expressed in transfected cells; host or cells: HEK293T, transient
# T4 sequence (P41145 whole entry): as the sequence (P41145 whole entry) above
# human KOR E209A [6] = target: T5, human KOR E209A (Homo sapiens, UniProt P41145, E209A); assay type: cell-based
# T5 construct: FLAG; expressed in transfected cells; host or cells: HEK293 / HEK293T, transient
# T5 sequence (P41145 whole entry E209A): as the sequence (P41145 whole entry) above, with E209A counted along it
# human KOR E209A [7] = target: T5, human KOR E209A; test: BRET β-arrestin-2 biosensor assay; assay type: cell-based
# in vitro = conditions: human, serum, serum stability, amount remaining, Figure S15
# Method: as §1, §2
# linear separation gradient over 30 min.
# human KOR L309A [8] = target: T6, human KOR L309A (Homo sapiens, UniProt P41145, L309A); test: BRET β-arrestin-2 biosensor assay; assay type: cell-based
# T6 construct: FLAG; expressed in transfected cells; host or cells: HEK293T
# T6 sequence (P41145 whole entry L309A): as the sequence (P41145 whole entry) above, with L309A counted along it
# human KOR E297A [9] = target: T7, human KOR E297A (Homo sapiens, UniProt P41145, E297A); assay type: cell-based
# T7 construct: FLAG; expressed in transfected cells; host or cells: HEK293T
# T7 sequence (P41145 whole entry E297A): as the sequence (P41145 whole entry) above, with E297A counted along it
# human KOR E297A [10] = target: T7, human KOR E297A; test: BRET β-arrestin-2 biosensor assay; assay type: cell-based
# human KOR L309A [11] = target: T6, human KOR L309A; assay type: cell-based
# human KOR WT [12] = target: T4, human KOR WT; test: BRET β-arrestin-2 biosensor assay; assay type: cell-based
# human KOR WT [13] = target: T4, human KOR WT; assay type: cell-based
# T1 sequence (P35372 whole entry): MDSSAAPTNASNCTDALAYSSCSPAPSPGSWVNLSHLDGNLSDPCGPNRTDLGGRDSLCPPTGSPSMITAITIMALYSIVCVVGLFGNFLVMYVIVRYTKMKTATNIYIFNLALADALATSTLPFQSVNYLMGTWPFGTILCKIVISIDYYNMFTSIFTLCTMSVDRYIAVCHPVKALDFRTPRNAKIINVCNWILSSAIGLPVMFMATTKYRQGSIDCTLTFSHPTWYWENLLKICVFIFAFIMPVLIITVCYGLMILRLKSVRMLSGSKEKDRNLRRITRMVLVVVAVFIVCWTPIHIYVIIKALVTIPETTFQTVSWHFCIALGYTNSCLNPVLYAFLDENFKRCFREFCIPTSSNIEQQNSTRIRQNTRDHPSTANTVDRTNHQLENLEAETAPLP
smiles,measurement,setting,value
"C=CCN1CC[C@]23c4c5ccc(O)c4O[C@H]2[C@H](N)CC[C@@]3(O)[C@H]1C5 [β-NalA, β-naloxamine]","agonist response at MOR, Figure S13a",human MOR; Log [ligand] (M) -9,0.0
same,EC50 (M) MOR,human MOR; [35S]GTPγS,no stimulation up to 10 µM
same,EC50,mouse KOR [1],130 nM
same,Emax,"mouse KOR [1]; HEK-293T, read-out: Emax cAMP assay",61%
same,EC50,human KOR,150 nM
same,Emax,human KOR,22%
same,"stimulation of [35S]GTPγS binding, normalized",human KOR; Log [ligand] (M) -5,26.3 and 15.7 and 17.2
same,"stimulation of [35S]GTPγS binding, normalized",human KOR; Log [ligand] (M) -6,26.7 and 25.9 and 13
same,"stimulation of [35S]GTPγS binding, normalized",human KOR; Log [ligand] (M) -6.5,25.5 and 13.8
same,"stimulation of [35S]GTPγS binding, normalized",human KOR; Log [ligand] (M) -7,15.4 and 11.8 and 3.2
same,"stimulation of [35S]GTPγS binding, normalized",human KOR; Log [ligand] (M) -7.5,4.1
same,"stimulation of [35S]GTPγS binding, normalized",human KOR; Log [ligand] (M) -8,17.5 and 5.8 and 1.8
same,"stimulation of [35S]GTPγS binding, normalized",human KOR; Log [ligand] (M) -8.5,4
same,"stimulation of [35S]GTPγS binding, normalized",human KOR; Log [ligand] (M) -9,20.6 and 20.7 and 0
same,"stimulation of [35S]GTPγS binding, normalized",human KOR; Log [ligand] (M) -10,8.5 and 3.1 and 0.3
same,"stimulation of [35S]GTPγS binding, normalized",human KOR; Log [ligand] (M) -11,8.8 and 6 and 1
same,"stimulation of [35S]GTPγS binding, normalized",human KOR; Log [ligand] (M) -12,2
same,"agonist response at DOR, Figure S13b",human DOR; Log [ligand] (M) -5,29.5 and 25.6
same,"agonist response at DOR, Figure S13b",human DOR; Log [ligand] (M) -5.5,26.4 and 22
same,"agonist response at DOR, Figure S13b",human DOR; Log [ligand] (M) -6.5,11.6 and 22.3
same,"agonist response at DOR, Figure S13b",human DOR; Log [ligand] (M) -7,11.8 and 10.9 and 6.8
same,EC50 (M) DOR,human DOR; [35S]GTPγS,no stimulation up to 10 µM
same,EC50,mouse KOR [2],15 nM
same,β-arrestin-3 (Figure 3j),mouse KOR [2],50.66
same,Emax,"mouse KOR [2]; HEK-293T, read-out: Emax β-arrestin-2 recruitment",51%
same,"β-arrestin-2 recruitment, normalized",mouse KOR [2]; Log [ligand] (M) -5,75.0642 and 33.7213 and 53.9146
same,"β-arrestin-2 recruitment, normalized",mouse KOR [2]; Log [ligand] (M) -6,47.1252 and 26.1295 and 56.8071
same,"β-arrestin-2 recruitment, normalized",mouse KOR [2]; Log [ligand] (M) -7,55.6969 and 39.8004 and 43.7179
same,"β-arrestin-2 recruitment, normalized",mouse KOR [2]; Log [ligand] (M) -8,23.8448 and 3.34 and 20.2841
same,"β-arrestin-2 recruitment, normalized",mouse KOR [2]; Log [ligand] (M) -9,18.9925 and 16.6241
same,"β-arrestin-2 recruitment, normalized",mouse KOR [2]; Log [ligand] (M) -10,9.149 and -15.1009 and 26.0906
same,Ki,mouse KOR [3],72 nM
same,"specific [3H]DPN binding, normalized to 100%",mouse KOR [3]; Log [ligand] (M) -5,4.737 and -0.7945 and 2.618
same,"specific [3H]DPN binding, normalized to 100%",mouse KOR [3]; Log [ligand] (M) -5.5,7.624 and 1.593 and 6.477
same,"specific [3H]DPN binding, normalized to 100%",mouse KOR [3]; Log [ligand] (M) -6,15.6906 and 8.934 and 15.8979
same,"specific [3H]DPN binding, normalized to 100%",mouse KOR [3]; Log [ligand] (M) -6.5,35.1232 and 21.428 and 37.6169
same,"specific [3H]DPN binding, normalized to 100%",mouse KOR [3]; Log [ligand] (M) -7,55.6281 and 51.2816 and 59.6036
same,"specific [3H]DPN binding, normalized to 100%",mouse KOR [3]; Log [ligand] (M) -7.5,78.1171 and 80.8645 and 81.4583
same,"specific [3H]DPN binding, normalized to 100%",mouse KOR [3]; Log [ligand] (M) -8,95.8025 and 95.1499 and 93.7293
same,"specific [3H]DPN binding, normalized to 100%",mouse KOR [3]; Log [ligand] (M) -8.5,97.8462 and 101.481 and 96.8345
same,"specific [3H]DPN binding, normalized to 100%",mouse KOR [3]; Log [ligand] (M) -9,98.6307 and 97.8789 and 97.5636
same,"specific [3H]DPN binding, normalized to 100%",mouse KOR [3]; Log [ligand] (M) -9.5,100
CC[C@H](C)[C@H](NC(=O)[C@H](CCCN=C(N)N)NC(=O)[C@H](CCCN=C(N)N)NC(=O)[C@H](CC(C)C)NC(=O)[C@H](Cc1ccccc1)NC(=O)CNC(=O)CNC(=O)[C@@H](N)Cc1ccc(O)cc1)C(=O)N[C@@H](CCCN=C(N)N)C(=O)N1CCC[C@H]1C(=O)N[C@@H](CCCCN)C(=O)N[C@@H](CC(C)C)C(=O)N[C@@H](CCCCN)C(N)=O [dynA1-13],"serum stability, amount remaining, Figure S15",[4],100
same,"serum stability, amount remaining, Figure S15",[4]; 40 min,30
same,"serum stability, amount remaining, Figure S15",[4]; 1 h,6
same,EC50,human KOR WT [5],0.00501 nM
same,EC50,human KOR E209A [6],0.148 nM
same,EC50,human KOR E209A [7],6.61 nM
same,remaining at 5 min,in vitro,106%
same,remaining at 10 min,in vitro,85%
same,remaining at 20 min,in vitro,66%
same,remaining at 40 min,in vitro,33%
same,remaining at 1 h,in vitro,7%
same,remaining at 2 h,in vitro,2%
same,remaining at 4 h,in vitro,0%
same,remaining at 6 h,in vitro,0.1%
same,remaining at 24 h,in vitro,0.1%
same,remaining at 48 h,in vitro,5%
same,EC50,human KOR L309A [8],1.32 nM
same,EC50,mouse KOR [1],4.9 ± 1.8 nM
same,EC50,mouse KOR [2]; EC50 β-arrestin-2 recruitment,31 nM
same,EC50,mouse KOR [2]; potency (log EC50) β-arrestin-3,31 nM
same,EC50,human KOR E297A [9],0.204 nM
same,EC50,human KOR E297A [10],7.94 nM
same,EC50,human KOR L309A [11],0.0302 nM
same,EC50,human KOR WT [12],0.617 nM
same,EC50,human KOR WT [13],0.0437 nM
